According to patent publication US5264430A, “2-spirocyclopropyl cephalosporin sulfone derivatives” (SynPhar Laboratories, Inc., priority 1991, dated 1993):
Like-named read-outs stand apart in the source and are kept apart here.

Legend:
[1] = target: T1, cathepsin C (Bos taurus, UniProt Q3ZCJ8); assay: Selectivity against various proteases: cathepsin C (CTC); assay type: biochemical, bovine
T1 construct: Purified cathepsin C from bovine spleen; from tissue; host or cells: bovine spleen

[2] = target: T2, cathepsin G (Homo sapiens, UniProt P08311); assay: Selectivity against various proteases: cathepsin G (CTG); assay type: biochemical; settings: cathepsin G 50 nM, human white blood cells, pH 7.5, 30° C., 10 minute preincubation
T2 construct: Purified Cathepsin G from human white blood cells; from tissue; host or cells: human white blood cells
T2 sequence (P08311 21-244 limits assumed): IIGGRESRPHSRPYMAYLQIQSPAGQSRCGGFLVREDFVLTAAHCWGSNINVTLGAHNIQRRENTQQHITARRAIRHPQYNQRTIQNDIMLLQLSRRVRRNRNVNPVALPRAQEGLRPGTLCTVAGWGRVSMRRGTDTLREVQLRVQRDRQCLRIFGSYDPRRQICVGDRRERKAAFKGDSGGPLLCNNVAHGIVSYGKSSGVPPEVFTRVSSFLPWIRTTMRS
Protocol: Reaction mixture: […] 500 mM NaCl […] 2.0 mM Substrate Except for Cathepsin D, the enzyme activities were determined by monitoring the increase in absorbance at 410 nm caused by the hydrolysis of chromogenic substrates. The activity of Cathepsin D was determined by monitoring the absorbance of 5% trichloroacetic acid-soluble material at 280 nm. Inhibition of enzymes by the compounds described were determined after a 10 minute preincubation with enzymes in reaction mixtures minus substrate. Reactions were initiated by the addition of substrates. The concentration used for assays were porcine pancreatic elastase at 240 nM and human Cathepsin G at 50 nM. Cathepsin D was used at the concentration that produced approximately 0.15 O.D. increase per 20 min at 280 nm under the standard conditions. All other proteases were assayed at the concentrations that produced approximately 0.1 O.D. change per minute at 410 nm under the standard conditions.

[3] = target: T3, trypsin (Bos taurus, UniProt P00760); assay: Selectivity against various proteases: trypsin (TRY); assay type: biochemical, bovine
T3 construct: Purified trypsin from bovine pancreas; from tissue; host or cells: bovine pancreas
T3 sequence (P00760 24-246): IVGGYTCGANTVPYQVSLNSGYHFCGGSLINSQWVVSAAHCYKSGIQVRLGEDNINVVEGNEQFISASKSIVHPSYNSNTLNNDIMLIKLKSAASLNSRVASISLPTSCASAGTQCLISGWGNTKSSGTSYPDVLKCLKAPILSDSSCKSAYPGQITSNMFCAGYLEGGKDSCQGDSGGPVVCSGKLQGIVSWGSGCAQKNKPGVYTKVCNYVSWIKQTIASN

[4] = target: T4, aminopeptidase M (Sus scrofa, UniProt P15145); assay: Selectivity against various proteases: aminopeptidase M (APM); assay type: biochemical, porcine
T4 construct: Purified aminopeptidase M from porcine kidney; from tissue; host or cells: porcine kidney
T4 sequence (P15145 1-963): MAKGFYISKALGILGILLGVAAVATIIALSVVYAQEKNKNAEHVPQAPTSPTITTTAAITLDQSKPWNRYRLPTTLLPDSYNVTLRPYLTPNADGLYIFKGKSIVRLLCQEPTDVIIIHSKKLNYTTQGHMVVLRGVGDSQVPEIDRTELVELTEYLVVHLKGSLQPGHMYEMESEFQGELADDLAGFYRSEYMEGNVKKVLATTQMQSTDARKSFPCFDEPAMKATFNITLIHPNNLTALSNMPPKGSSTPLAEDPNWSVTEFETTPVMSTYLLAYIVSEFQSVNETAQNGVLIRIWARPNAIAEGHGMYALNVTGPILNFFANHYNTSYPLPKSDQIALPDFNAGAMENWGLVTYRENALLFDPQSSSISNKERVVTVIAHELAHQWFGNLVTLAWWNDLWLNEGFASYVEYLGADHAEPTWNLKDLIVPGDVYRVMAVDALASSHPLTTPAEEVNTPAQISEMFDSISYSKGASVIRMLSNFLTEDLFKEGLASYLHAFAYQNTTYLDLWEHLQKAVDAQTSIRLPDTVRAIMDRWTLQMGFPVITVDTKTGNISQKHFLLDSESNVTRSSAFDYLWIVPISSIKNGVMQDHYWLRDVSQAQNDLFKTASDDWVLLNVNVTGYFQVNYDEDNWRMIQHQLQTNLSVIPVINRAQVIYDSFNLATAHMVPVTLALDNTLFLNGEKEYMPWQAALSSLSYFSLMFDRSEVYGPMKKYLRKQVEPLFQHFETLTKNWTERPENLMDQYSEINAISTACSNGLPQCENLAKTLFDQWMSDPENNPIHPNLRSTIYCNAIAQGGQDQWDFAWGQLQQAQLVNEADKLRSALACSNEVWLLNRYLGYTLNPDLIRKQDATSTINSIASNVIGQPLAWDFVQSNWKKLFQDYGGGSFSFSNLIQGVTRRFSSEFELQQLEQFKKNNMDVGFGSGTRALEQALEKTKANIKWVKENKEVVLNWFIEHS

[5] = target: T5, thrombin (Homo sapiens, UniProt P00734); assay: Selectivity against various proteases: thrombin (THR); assay type: biochemical; settings: human plasma, pH 8.6, 22° C., 10 minute preincubation
T5 construct: Purified thrombin from human plasma; from tissue; host or cells: human plasma
Protocol: TRY = trypsin, THR = thrombin, PLM = plasmin, CTC = cathepsin C, APM =
Enzyme: Purified thrombin from human plasma
Substrate: Tosyl-glycyl-L-prolyl-L-arginine-p-NA acetate
50 mM Tricine-NaOH buffer (PH 8.6)
(§1) Except for Cathepsin D, the enzyme activities were determined by monitoring the increase in absorbance at 410 nm caused by the hydrolysis of chromogenic substrates. The activity of Cathepsin D was determined by monitoring the absorbance of 5% trichloroacetic acid-soluble material at 280 nm.
(§2) Inhibition of enzymes by the compounds described were determined after a 10 minute preincubation with enzymes in reaction mixtures minus substrate. Reactions were initiated by the addition of substrates. The concentration used for assays were porcine pancreatic elastase at 240 nM and human Cathepsin G at 50 nM. Cathepsin D was used at the concentration that produced approximately 0.15 O.D. increase per 20 min at 280 nm under the standard conditions. All other proteases were assayed at the concentrations that produced approximately 0.1 O.D. change per minute at 410 nm under the standard conditions.

[6] = target: T6, cathepsin D (Bos taurus, UniProt P80209); assay: Selectivity against various proteases: cathepsin D (CTD); assay type: biochemical, bovine
T6 construct: Purified cathepsin D from bovine spleen; from tissue; host or cells: bovine spleen

[7] = target: T7, porcine pancreatic elastase (Sus scrofa, UniProt P00772); assay: Selectivity against various proteases: porcine pancreatic elastase (PPE); assay type: biochemical
T7 construct: Purified elastase from porcine pancreas; from tissue; host or cells: porcine pancreas
Protocol: Porcine Pancreatic Elastase (PPE)
Enzyme: Purified elastase from porcine pancreas
Substrate: MeO-succinyl-L-alanyl-L-alanyl-L-prolyl-L-valine-pNA
50 mM Tris[Tris(hydroxymethyl) aminomethane]. HCl buffer (pH 8.9)
as §1
as §2, with “The concentration used for assays were porcine pancreatic elastase at 240 nM and human Cathepsin G at 50 nM.” left out

[8] = cathepsin C, bovine spleen, pH 5.4, 22° C., 10 minute preincubation, read-out: CTC IC50 (converted)
[9] = trypsin, bovine pancreas, pH 8.8, 22° C., 10 minute preincubation, read-out: TRY IC50 (converted)
[10] = aminopeptidase M, porcine kidney, pH 7.5, 22° C., 10 minute preincubation, read-out: APM IC50 (converted)
[11] = cathepsin D, bovine spleen, pH 3.2, 30° C., 10 minute preincubation, read-out: CTD IC50 (converted)
[12] = porcine pancreatic elastase 240 nM, pH 8.9, 30° C., 10 minute preincubation, read-out: PPE IC50 (converted)

T1 sequence (Q3ZCJ8 231-394 limits assumed): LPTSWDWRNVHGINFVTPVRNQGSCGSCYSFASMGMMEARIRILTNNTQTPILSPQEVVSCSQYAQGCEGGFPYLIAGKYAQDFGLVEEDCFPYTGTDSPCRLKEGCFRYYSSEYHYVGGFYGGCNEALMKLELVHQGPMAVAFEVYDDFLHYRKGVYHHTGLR
T1 sequence (Q3ZCJ8 395-463 limits assumed): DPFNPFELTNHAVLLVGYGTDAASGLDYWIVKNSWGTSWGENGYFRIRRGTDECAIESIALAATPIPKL
T1 sequence (Q3ZCJ8 25-134 limits assumed): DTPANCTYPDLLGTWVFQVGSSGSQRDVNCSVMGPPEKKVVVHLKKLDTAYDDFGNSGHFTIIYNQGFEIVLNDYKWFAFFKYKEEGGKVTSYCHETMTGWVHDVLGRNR
T6 sequence (P80209 45-390): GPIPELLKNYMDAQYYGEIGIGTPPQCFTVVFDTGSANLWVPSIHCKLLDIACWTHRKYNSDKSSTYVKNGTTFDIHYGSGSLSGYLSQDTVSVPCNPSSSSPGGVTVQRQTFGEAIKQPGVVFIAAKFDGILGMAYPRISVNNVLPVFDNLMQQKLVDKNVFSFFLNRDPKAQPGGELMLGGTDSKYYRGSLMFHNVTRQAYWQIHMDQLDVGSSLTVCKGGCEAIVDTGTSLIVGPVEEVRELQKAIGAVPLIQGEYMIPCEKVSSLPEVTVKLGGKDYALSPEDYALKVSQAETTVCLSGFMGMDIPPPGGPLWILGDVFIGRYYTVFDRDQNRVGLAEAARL
T7 sequence (P00772 27-266): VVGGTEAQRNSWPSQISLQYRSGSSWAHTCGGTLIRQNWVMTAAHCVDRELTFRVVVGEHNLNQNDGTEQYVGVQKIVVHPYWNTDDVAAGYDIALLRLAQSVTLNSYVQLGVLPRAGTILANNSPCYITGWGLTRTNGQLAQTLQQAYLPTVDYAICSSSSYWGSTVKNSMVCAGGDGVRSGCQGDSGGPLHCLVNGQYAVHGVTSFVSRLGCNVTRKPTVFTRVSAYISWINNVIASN

Structure (SMILES)	IC50 [1, 8] [µM]	IC50 [2] [µM]	IC50 [3, 9] [µM]	IC50 [4, 10] [µM]	IC50 [5] [µM]	IC50 [6, 11] [µM]	IC50 [1] [µM]	IC50 [4] [µM]	IC50 [3] [µM]	IC50 [6] [µM]	IC50 [7, 12] [nM]	IC50 [7] [nM]	TRY IC50 ([3]; trypsin, bovine pancreas, pH 8.8, 22° C., 10 minute preincubation) [µg/mL]
CC1=C(C(=O)OC(c2ccccc2)c2ccccc2)N2C(=O)[C@H](Cl)[C@H]2S(=O)(=O)C12CC2(c1ccccc1)c1ccccc1 (single isomer, unassigned) [Example 1, Benzhydryl 7α-chloro-2-spiro(2',2'-diphenyl) cyclopropyl-3-methyl-3-cephem-4-carboxylate-1,1-dioxide]	60	20	60	60	40	17.2							
CC1=C(C(=O)OC(c2ccccc2)c2ccccc2)N2C(=O)[C@H](Br)[C@H]2S(=O)(=O)C12CC2(c1ccc(Cl)cc1)c1ccc(Cl)cc1 (single isomer, unassigned) [Example 12, Benzhydryl 7α-bromo-2-spiro [2',2'-(4',4'-dichloro)diphenyl]cyclopropyl-3-methyl-3-cephem-4-carboxylate-1,1-dioxide]					55.3	46.2	55.3	55.3					
CC1=C(C(=O)OC(c2ccccc2)c2ccccc2)N2C(=O)[C@H](Br)[C@H]2S(=O)(=O)C12CC2(c1ccc(F)cc1)c1ccc(F)cc1 (single isomer, unassigned) [Example 13, Benzhydryl 7α-bromo-2-spiro[2',2'-(4',4'-difluoro)diphenyl] cyclopropyl-3-methyl-3-cephem-4-carboxylate-1,1-dioxide]					40	50	40	40	40				
CC1=C(C(=O)N2CCCC2)N2C(=O)[C@H](Br)[C@H]2S(=O)(=O)C12CC2(c1ccccc1)c1ccccc1 (stereo partly drawn) [Example 6, 7α Bromo-2-spiro(2',2'-diphenyl)cyclopropyl-3-methyl-3-cephem-4-pyrrolidine carboxamide-1,1-dioxide]	9.77			9.77	39	9.77			39				
CO[C@H]1C(=O)N2C(C(=O)OCC(Cl)(Cl)Cl)=C(C)C3(CC3(c3ccccc3)c3ccccc3)S(=O)(=O)[C@H]12 (stereo partly drawn) [Example 8, 2,2,2-Trichloroethyl-7α-methoxy-2-spiro(2',2'-diphenyl) cyclo-propyl-3-methyl-3-cephem-4-carboxylate-1,1-dioxide]					9.98		9.98	9.98		9.98			
CO[C@H]1C(=O)N2C(C(=O)OC(c3ccccc3)c3ccccc3)=C(C)C3(CC3(c3ccccc3)c3ccccc3)S(=O)(=O)[C@H]12 (stereo partly drawn) [Example 9, Benzhydryl 7α-methoxy-2-spiro (2',2'-diphenyl) cyclopropyl-3-methyl-3-cephem-4-carboxylate-1,1-dioxide]					10		10	10	10	10	57.8		
CO[C@H]1C(=O)N2C(C(=O)N3CCCC3)=C(C)C3(CC3(c3ccccc3)c3ccccc3)S(=O)(=O)[C@H]12 (stereo partly drawn) [Example 10, 7-α-Methoxy-2-spiro (2',2'-diphenyl)cyclopropyl-3-methyl-3-cephem-4-pyrrolidine carboxamide-1,1-dioxide]	9.99	30.9			40	9.99		40	40		95.4		
CO[C@H]1C(=O)N2C(C(=O)N3CCCCC3)=C(C)C3(CC3(c3ccccc3)c3ccccc3)S(=O)(=O)[C@H]12 (stereo partly drawn) [Example 11, 7α-Methoxy-2-spiro (2',2'-diphenyl)cyclopropyl-3-methyl-3-cephem-4-piperidine carboxamide-1,1-dioxide]	10		10	10	39.9	10						31.6	
CCOC(=O)C1CC12C(C)=C(C(=O)OC(c1ccccc1)c1ccccc1)N1C(=O)[C@H](Br)[C@H]1S2(=O)=O (stereo partly drawn) [Example 13 (1), Benzhydryl 7α-bromo-2-spiro(2'-ethoxycarbonyl)cyclo propyl-3-methyl-3-cephem-4-carboxylate-1,1-dioxide]					40		40	40					
CC1=C(C(=O)OC(c2ccccc2)c2ccccc2)N2C(=O)[C@H](Br)[C@H]2S(=O)(=O)C12CC2(C)c1ccccc1 (stereo partly drawn) [Example 13 (2), Benzhydryl 7α-bromo-2-spiro(2'-phenyl-2'-methyl) cyclopropyl-3-methyl-3-cephem-4-carboxylate-1,1-dioxide]					40	50	40	40					0.089
